Reference: patent publication US20250213533A1 (GH RESEARCH IRELAND LIMITED, priority 2022, published 2025)

Columns and labels:
[1] = Pharmacokinetics of 5-MeO-DMT and bufotenine after inhalation of 5-MeO-DMT in subjects; assay type: in vivo, human
[2] = system: Escherichia coli (WP2 uvrA pKM101); test: Bacterial mutation test, tryptophan-requiring strain; assay type: cell-based; conditions: up to 5000 μg/plate, absence and presence of rat liver S-9
Method: These conditions included treatments at concentrations up to 5000 μg/plate (the maximum recommended concentration according to current regulatory guidelines), in the absence and in the presence of a rat liver metabolic activation system (S-9).

For COc1ccc2[nH]cc(CCN(C)C)c2c1 [5-MeO-DMT], the detectability in plasma ([1]; 3 hours after inhalation, 6, 12, 18 mg) was “no longer detectable”, the absorption and distribution ([1]; inhaled) was “rapid absorption and distribution” and the “pharmacokinetic measurements with uptitration dosing schemes compared with single doses” value ([1]; uptitration, inhaled) was “Substantially similar results”. The induction of mutation [2] was “did not induce mutation”.
